The target of data set [1] is T1, human DP receptors (Homo sapiens, UniProt Q13258).
T1 construct: expressed in transfected cells
T1 sequence (Q13258 1-359): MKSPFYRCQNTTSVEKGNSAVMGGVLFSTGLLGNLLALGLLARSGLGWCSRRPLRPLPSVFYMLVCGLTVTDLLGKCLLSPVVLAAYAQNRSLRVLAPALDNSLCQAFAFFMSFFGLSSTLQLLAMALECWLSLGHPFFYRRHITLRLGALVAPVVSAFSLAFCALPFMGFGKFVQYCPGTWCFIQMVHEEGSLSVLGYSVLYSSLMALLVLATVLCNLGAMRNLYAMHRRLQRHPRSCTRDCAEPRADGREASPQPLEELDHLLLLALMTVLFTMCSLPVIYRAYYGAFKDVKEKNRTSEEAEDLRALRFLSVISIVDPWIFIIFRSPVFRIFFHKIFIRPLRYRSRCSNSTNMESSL
The data set can be described thus: competitive whole-cell [^3H]PGD2 radioligand binding assay in HEK-DP cells. The settings on record: for binding to DP receptors / competition with [^3H]PGD2: at least to a concentration of 100 nM (data not shown). The method, then: The medium of HEK-DP cells cultured in 10-cm dishes was switched from DMEM containing 10% fetal bovine serum to Opti-MEM at 37 °C for 16 h containing antibiotics, as stated previously. Cells were trypsinized and then resuspended at 1.0 x 10^6 cells/sample in 100 μl of ice-cold 10 mM HEPES buffer (pH 7.4) containing 1 mM EDTA and 10 mM MnCl2 (Sigma–Aldrich). […] Samples were incubated for 2 h at 4 °C, and then the assay was terminated by filtration through Whatman GF/C glass filters (Whatman). Filters were then washed three to five times with ice-cold HEPES buffer, and radioactivity was measured by liquid scintillation counting ([20]).

Data set [2] concerns the target T1, human DP receptors. The data set can be described thus: TCF/β-catenin-mediated luciferase reporter assay in HEK-DP cells. The settings on record: for effect on DP receptor-mediated activation of TCF/β-catenin signaling / EC50 / Emax (fold), β-catenin/TCF-mediated luciferase activity / Emax: HEK-DP cells; for effect on DP receptor-mediated activation of TCF/β-catenin signaling: up to 100 nM; for EC50: 16 h treatment; for τ (TCF transcriptional activity), operational efficacy / Kd: Black/Leff operational model, partial agonists; for Kd: read-out: KA (TCF transcriptional activity), apparent affinity; for Emax (fold), β-catenin/TCF-mediated luciferase activity / Emax: 16 h; for Emax (fold), β-catenin/TCF-mediated luciferase activity: vehicle-treated control as 1.0; for Emax: read-out: Emax of TCF/β-catenin activity as % of the PGD2 value. Type of data set: cell-based. The method, then:
HEK-DP cells were cultured in 6-well plates and, prior to the experiments, medium was switched to Opti-MEM for 16 h with antibiotics, as stated previously. Cells were transiently transfected using HyliMax reagent (Dojindo) with 400 ng/well of either TOP flash or FOP flash reporter plasmids and 2 ng/well of pRL-CMV plasmid (Promega), as described previously ([20]). […] Cells were then lysed and assayed using a dual luciferase reporter assay system (Promega) according to the manufacturer's instructions with TECAN infinite M200 (TECAN). Data were normalized by calculating the ratios of firefly luciferase values to corresponding renilla luciferase scores and corrected for background activity by subtracting FOP flash scores from the corresponding TOP flash values, as described previously ([20]).
(§1) The equation "operational model-partial agonist" was performed using the results presented in Figure 2, as reported previously ([20]). The basal level was 0 (Fig. 2A; cAMP) or 1 (Fig. 2B, TCF), and Hill slopes were specified as 1. […] The total responses evoked by the precursor prostanoid and its metabolites were calculated using the formula below ([23]): Response=[A1]/KA1×Tau1+[A2]/KA2×Tau2/[A1]/KA1×(Tau1+1)+[A2]/KA2×(Tau2+1)+1×EffectMax

The target of data set [3] is T1, human DP receptors. The data set can be described thus: cAMP formation assay in HEK-DP cells. The conditions noted are these: for effect on DP receptors in terms of cAMP accumulation: at least up to 100 nM; for τ' (cAMP formation) / τ (cAMP formation), operational efficacy / Kd: Black/Leff operational model; for τ' (cAMP formation): full agonists, τ' = KA' x R; for Emax: 60 min, normalized to 100 nM PGD2-stimulated cAMP as 100%; for EC50: 60 min treatment; for τ (cAMP formation), operational efficacy / Kd: partial agonists; for Kd: read-out: KA (cAMP formation), apparent affinity. Type of data set: cell-based. The method, then:
HEK-DP cells were cultured in 6-well plates and, prior to the experiments, the medium was switched from DMEM to Opti-MEM (Thermo Fisher Scientific) containing 250 μg/ml geneticin, 200 μg/ml hygromycin B, and 100 μg/ml gentamicin for 16 h. […] Three hundred microliters of TE buffer (50 mM Tris–HCl, 4 mM EDTA [pH 7.5]) was added, and cells were scraped and transferred to microcentrifuge tubes. Samples were boiled for 8 min, placed on ice, and then centrifuged for 1 min at 16,000g. Between 5 and 25 μl of the supernatants representing approximately 10^4 cells was added to 50 μl of TE buffer containing [^3H]cAMP (PerkinElmer Life Science) and then to 100 μl of 0.06 mg/ml PKA (Sigma–Aldrich; #P5511). The mixture was vortexed and incubated on ice for 120 min. Samples were added to 100 μl of TE buffer containing 2% of bovine serum albumin and 26 mg/ml of powdered activated charcoal (Sigma–Aldrich; #C7606). After vortexing and centrifugation at 16,000g for 5 min, 200 μl of the supernatants were transferred to vials for liquid scintillation.
as §1

For a further data set, the system named is platelets. Set-up: method as in PMID 17452035. The conditions noted are these: collagen-induced platelet aggregation; cited from earlier work.
For data set [4] the following is noted: cited from earlier work.

Where “and” joins values, the source holds several entries; their conditions need not be identical. Equal entries are not always repeated. Where two headings read alike, the source gives them in different places.

The values that follow come from publication PMC12145828 (The Journal of Biological Chemistry, 2025).

As a reminder, the IC50 is the concentration that gives 50% inhibition. Higher therefore signals weaker potency. A word on the EC50: it is the concentration needed to bring the measured effect to its halfway point. Low readings indicate a more potent agent, high ones a less potent agent.

Regarding `CCCCC/C=C\C=C1\C(=O)C=C[C@@H]1C/C=C\CCCC(=O)O` [15-d-PGJ2, 15-deoxy-Δ^12,14-PGJ2], on human DP receptors [1], the “binding to DP receptors / competition with [^3H]PGD2” value was “could not bind to DP receptors”. Also, at human DP receptors [2], the “effect on DP receptor-mediated activation of TCF/β-catenin signaling” value was “little effect”. Also, the “effect on DP receptors in terms of cAMP accumulation” value on human DP receptors [3] (HEK-DP cells) is recorded as “little effects”.

With `CCCCC[C@H](O)/C=C/[C@H]1C(=O)C=C[C@@H]1C/C=C\CCCC(=O)O` [PGJ2, prostaglandin J2], the IC50 at human DP receptors [1] is 5.11 nM. In the data set on platelets, the “potency of inhibiting platelet aggregation, times lower than that of PGD2” value is 13 times. Moreover, the EC50 on human DP receptors [2] is ~0.08 nM and 0.0758 nM. Besides, the “τ' (cAMP formation)” value on human DP receptors [3] came out at 86.76. The “time-dependent cAMP formation compared with PGD2, with IBMX pretreatment” value on human DP receptors [3] (HEK-DP cells, 0.3 nM ligand, 0.1 mg/ml IBMX for 25 min) is “significantly more cAMP from 5 to 60 min compared with PGD2”. The “time-dependent cAMP formation compared with PGD2, without IBMX pretreatment” value at human DP receptors [3] (HEK-DP cells, 0.3 nM ligand, no IBMX) is recorded as “significantly form more cAMP from 10 to 30 min compared with PGD2”. In addition, at human DP receptors [3] (HEK-DP cells), the Emax came to 102 ± 20.2%; the EC50 was ~0.05 nM and 0.0513 nM.

For the molecule `CCCCCC(=O)CC[C@H]1C(=O)C[C@H](O)[C@@H]1C/C=C\CCCC(=O)O` [DK-PGD2, 13,14-dihydro-15-keto PGD2], on human DP receptors [2], the “τ (TCF transcriptional activity), operational efficacy” value worked out at 0.21; the Kd stood at 18.9 nM; the “Emax (fold), β-catenin/TCF-mediated luciferase activity” value is “about 1.28 fold”; the EC50 was determined as 34.7 nM. The Emax on human DP receptors [2] was about 40%. Moreover, at human DP receptors [3], the “τ (cAMP formation), operational efficacy” value is 0.17 and the Kd stood at 15 nM. At human DP receptors [3] (HEK-DP cells), the Emax was about 14%; the EC50 is ~62.4 nM and 62.4 nM.

As for `CCCCCC(O)CC=C1C(=O)C=CC1CC=CCCCC(=O)O` (stereo not shown) [Δ^12-PGJ2], on human DP receptors [2], the “τ (TCF transcriptional activity), operational efficacy” value is given as 2.44; the Kd stood at 29.8 nM; the “Emax (fold), β-catenin/TCF-mediated luciferase activity” value was determined as 2.21 fold; the response was half-maximal at 8.96 nM (EC50). Moreover, on human DP receptors [2], the Emax was about 70%. Moreover, at human DP receptors [3], the “τ (cAMP formation), operational efficacy” value was 4.08 and the Kd came to 117 nM. Also, at human DP receptors [3] (HEK-DP cells), the Emax is about 67%; the EC50 is ~28.9 nM and 28.9 nM.

As for `CCCCC/C=C/C=C1/C(=O)C[C@H](O)[C@@H]1C/C=C\CCCC(=O)O` [15-d-PGD2, 15-deoxy-Δ^12,14-PGD2], the “binding to DP receptors / competition with [^3H]PGD2” value at human DP receptors [1] was “could not bind to DP receptors”. In addition, the “effect on DP receptor-mediated activation of TCF/β-catenin signaling” value on human DP receptors [2] is “little effect”. In addition, the “effect on DP receptors in terms of cAMP accumulation” value at human DP receptors [3] (HEK-DP cells) is on record as “little effects”.

On to `CCCCC[C@H](O)/C=C/[C@H]1C(=O)C[C@H](O)[C@@H]1C/C=C\CCCC(=O)O` [PGD2, Prostaglandin D2], for which the half-life in blood in data set [4] (blood) is listed as 0.9 min; in data set [4] (printed as blood), 30 min. For the same molecule, the half-life in plasma in data set [4] (plasma) is on record as 30 min. This molecule displayed an IC50 at human DP receptors [1] of 2.48 nM. For the same molecule, the EC50 is ~0.08 nM and 0.0892 nM on human DP receptors [2]; ~0.3 nM and 0.301 nM at human DP receptors [3] (HEK-DP cells). For the same molecule, at human DP receptors [3], the “τ' (cAMP formation)” value worked out at 11.48. The Emax on human DP receptors [3] (HEK-DP cells) is 100%.
